Measurements reported in patent US20060052368A1 (priority 2002, published 2006).
pKd: −log10 of the molar value.

Molecular target: α7 nAChR subtype (Rattus norvegicus, UniProt Q05941)
Type: binding
Conditions: read-out: KD of radioligand from saturation curves

α7 nAChR subtype, sequence (Q05941 23-502 limits assumed): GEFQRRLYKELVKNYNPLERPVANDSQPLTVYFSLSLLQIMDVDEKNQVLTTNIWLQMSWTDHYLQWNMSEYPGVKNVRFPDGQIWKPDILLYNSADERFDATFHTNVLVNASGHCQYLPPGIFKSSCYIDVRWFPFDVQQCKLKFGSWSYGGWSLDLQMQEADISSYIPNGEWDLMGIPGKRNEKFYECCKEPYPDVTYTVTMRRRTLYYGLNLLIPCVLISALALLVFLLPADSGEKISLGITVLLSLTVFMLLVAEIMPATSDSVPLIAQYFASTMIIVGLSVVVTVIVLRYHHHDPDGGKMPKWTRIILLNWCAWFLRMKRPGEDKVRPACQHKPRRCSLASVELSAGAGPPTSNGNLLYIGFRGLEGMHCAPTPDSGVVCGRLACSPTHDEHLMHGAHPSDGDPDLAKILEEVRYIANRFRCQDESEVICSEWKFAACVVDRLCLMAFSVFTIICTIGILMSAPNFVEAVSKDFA

Substance: ^125I-α-Bungarotoxin [^125I-α-BTX]
- pKd: 8.78
